# In publication PMC10291552, “Computational Design, Synthesis, and Biological Evaluation of Diimidazole Analogues Endowed with Dual PCSK9/HMG-CoAR-Inhibiting Activity” (Journal of Medicinal Chemistry, 2023):
# “Also recorded” adds a separate entry of the source.
# What was measured:
# [1] = target: T1, HMG-CoAR (catalytic domain) (Homo sapiens, UniProt P04035); experiment: HMG-CoAR activity assay (Sigma kit, NADPH oxidation at 340 nm); assay type: biochemical; settings: 10–500 μM tested, 37 °C
# T1 construct: and finally, HMG-CoAR (catalytic domain) (2 μL); purchased Sigma Aldrich
# T1 sequence (P04035 426-888 limits assumed): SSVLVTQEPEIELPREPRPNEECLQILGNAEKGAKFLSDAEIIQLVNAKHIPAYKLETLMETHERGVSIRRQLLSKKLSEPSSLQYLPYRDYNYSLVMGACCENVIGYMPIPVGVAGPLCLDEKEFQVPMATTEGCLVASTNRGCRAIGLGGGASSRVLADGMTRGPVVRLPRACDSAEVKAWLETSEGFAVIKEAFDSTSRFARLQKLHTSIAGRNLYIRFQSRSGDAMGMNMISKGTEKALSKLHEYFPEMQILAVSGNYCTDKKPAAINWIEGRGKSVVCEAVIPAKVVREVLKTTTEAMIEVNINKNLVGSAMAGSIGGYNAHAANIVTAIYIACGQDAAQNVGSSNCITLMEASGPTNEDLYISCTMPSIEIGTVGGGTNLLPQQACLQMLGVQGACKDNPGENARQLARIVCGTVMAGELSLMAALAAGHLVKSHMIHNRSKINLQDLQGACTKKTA
# Method: The experiments were carried out following the manufacturer’s instructions and optimized protocol.[43] The assay buffer, NADPH, substrate solution, and HMG-CoAR were provided in the HMG-CoAR Assay Kit (Sigma Aldrich SRL, Milan, Italy). The experiments were carried out following the manufacturer’s instructions at 37 °C. In particular, each reaction (200 μL) was prepared adding the reagents in the following order: 1× assay buffer, a 10–500 μM dose of sonicated Dim analogues or vehicle (C), NADPH (4 μL), the substrate solution (12 μL), and finally, HMG-CoAR (catalytic domain) (2 μL). Subsequently, the samples were mixed, and the absorbance at 340 nm was read by a microplate reader (Synergy H1, Winooski, VT, USA) at times of 0 and 10 min. The HMGCoAR-dependent oxidation of NADPH and the inhibition properties of the peptides were measured by absorbance reduction, which is directly proportional to enzyme activity.
# [2] = test system: LDLR localized on HepG2 surfaces; experiment: In-cell Western assay of LDLR on the HepG2 cell surface in the presence of PCSK9; assay type: cell-based, human; settings: for LDLR levels on HepG2 surface: co-incubated with PCSK9 4 μg/mL, relative to untreated control cells; for fold more active than Rim13: LDLR restoration and LDL uptake in HepG2 cells, versus Rim13 ref 25
# Method: For the experiments, a total of 3 × 10^4 HepG2 cells/well were seeded in 96-well plates. The following day, the cells were washed with PBS and then starved overnight (O/N) in DMEM without FBS and antibiotics. After starvation, the HepG2 cells were treated with 4.0 μg/mL PCSK9-WT and 4.0 μg/mL PCSK9 + diimidazole analogues and vehicle (H2O) for 2 h at 37 °C under a 5% CO2 atmosphere. Subsequently, they were fixed in 4% paraformaldehyde for 20 min at room temperature (RT). Cells were washed 5 times with 100 μL of PBS/well (each wash was for 5 min at RT), and the endogenous peroxide activity was quenched by adding 3% H2O2 for 20 min at RT. Non-specific sites were blocked with 100 μL/well of 5% bovine serum albumin (BSA, Sigma) in PBS for 1.5 h at RT. LDLR primary antibody solution (1:3000 in 5% BSA in PBS, 25 μL/well) was incubated O/N at +4 °C. Subsequently, the primary antibody solution was discarded, and each sample was washed 5 times with 100 μL/well of PBS (each wash was for 5 min at RT). Goat anti-rabbit Ig-HRP secondary antibody solution (Santa Cruz) (1:6000 in 5% BSA in PBS, 50 μL/well) was added and incubated 1 h at RT. The secondary antibody solution was washed 5 times with 100 μL/well of PBS (each wash for 5 min at RT). Freshly prepared TMB substrate (Pierce, 100 μL/well) was added, and the plate was incubated at RT until the desired color was developed. The reaction was stopped with 2 M H2SO4, and then the absorbance at 450 nm was measured using a microplate reader (Synergy H1, Winooski, VT, USA). After the reading, the cells were stained by adding 1× Janus Green stain, incubating for 5 min at RT. The dye was removed, and the sample was washed 5 times with water. Afterward, 100 μL of 0.5 M HCl for well was added, and the solution was incubated for 10 min. After 10 s of shaking, the OD at 595 nm was measured using the microplate reader (Synergy H1, Winooski, VT, USA).
# [3] = target: T2, PCSK9/LDLR (Homo sapiens, UniProt Q8NBP7); experiment: In vitro PCSK9-LDLR binding assay (CircuLex/CycLex kit); settings: for IC50: mean ± SD, three independent experiments, Hill slope fixed at −1
# T2 construct: purchased CircuLex (CycLex Co., Nagano, Japan)
# Method: Diimidazole analogues (0.1–1 × 10^6 nM) were tested using the in vitro PCSK9-LDLR binding assay (CycLex Co., Nagano, Japan) following the manufacturer’s instructions and with the conditions already optimized.[15] Briefly, the plates were pre-coated with a recombinant LDLR-AB domain containing the binding site of PCSK9. Before starting the assay, the tested analogues and/or the vehicle in DMSO were sonicated at 37 °C, diluted in the reaction buffer, and added in microcentrifuge tubes. Afterward, the reaction mixtures were added in each well of the microplate, and the reaction was started by adding His-tagged PCSK9 solution (3 μL). The microplate was allowed to incubate for 2 h at room-temperature (RT) shaking at 300 rpm on an orbital microplate shaker. Subsequently, the wells were washed 4 times with the wash buffer. After the last wash, the biotinylated anti-His-tag monoclonal antibody (100 μL) was added and incubated at RT for 1 h shaking at 300 rpm. After incubation, the wells were washed 4 times with wash buffer. After the last wash, 100 μL of HRP-conjugated streptavidin were added, and the plate was incubated for 20 min at RT. After incubation, the wells were washed 4 times with wash buffer. Finally, the substrate reagent (tetra-methylbenzidine) was added, and the plate was incubated for 10 min at RT shaking at ca. 300 rpm. The reaction was stopped with 2.0 M sulfuric acid, and the absorbance at 450 nm was measured using a Synergy H1 fluorescent plate reader (Winooski, VT, USA).
# All the data sets were checked for normal distribution by D’Agostino and Pearson tests. Since they are all normally disturbed with p values of […], we proceeded with statistical analyses of one-way ANOVA followed by Tukey’s post hoc test using Graphpad Prism 9 (San Diego, CA, USA). Values were reported as means ± s.d.; p values of <0.05 were considered to be significant. The IC50 values of samples inhibiting PCSK9-LDLR binding were evaluated by using the log(inhibitor) vs response model of GraphPad Prism 9 (San Diego, CA, USA). This model assumes that the dose–response curves has a standard slope, equal to a Hill slope (or slope factor) of −1.0. This is the slope expected when a ligand binds to a receptor following the law of mass action and is the slope expected of a dose–response curve when the second messenger created by receptor stimulation binds to its receptor by the law of mass action (https://graphpad.com/guides/prism/latest/curvefitting/reg_dr_inhibit.htm).
# T2 sequence (Q8NBP7 153-692): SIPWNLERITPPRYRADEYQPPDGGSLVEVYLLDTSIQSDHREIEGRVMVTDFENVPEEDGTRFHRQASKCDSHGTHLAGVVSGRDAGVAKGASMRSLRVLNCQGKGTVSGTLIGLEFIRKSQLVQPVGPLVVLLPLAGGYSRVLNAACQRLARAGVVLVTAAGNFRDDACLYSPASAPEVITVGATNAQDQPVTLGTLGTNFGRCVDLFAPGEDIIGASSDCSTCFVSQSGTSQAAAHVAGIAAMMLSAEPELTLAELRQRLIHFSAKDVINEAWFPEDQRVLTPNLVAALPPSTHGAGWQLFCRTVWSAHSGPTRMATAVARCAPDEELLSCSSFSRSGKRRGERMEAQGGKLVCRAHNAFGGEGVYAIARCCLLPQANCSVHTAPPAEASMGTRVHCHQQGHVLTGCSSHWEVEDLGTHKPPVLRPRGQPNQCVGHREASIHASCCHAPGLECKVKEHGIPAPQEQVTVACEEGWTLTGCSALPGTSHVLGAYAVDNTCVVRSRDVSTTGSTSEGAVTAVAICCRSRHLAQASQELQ
# T2 sequence (Q8NBP7 31-152 limits assumed): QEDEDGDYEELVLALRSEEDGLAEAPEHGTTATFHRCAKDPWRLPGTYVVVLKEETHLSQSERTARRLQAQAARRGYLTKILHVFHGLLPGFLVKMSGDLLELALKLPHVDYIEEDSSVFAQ
Structure (SMILES),HMG-CoAR activity IC50 [1],LDLR levels on HepG2 surface ([2]; 1 nM) [%],LDLR levels on HepG2 surface ([2]; 10 nM) [%],fold more active than Rim13 [2],IC50 [3] [nM],IC50 [1] [nM],"fold more effective than Dim3 in restoring LDLR protein level on cell surface ([2]; cellular level, Figure 4)","PCSK9/LDLR PPI, fold more active than P5 ([3]; ratio versus P5)"
"C#Cc1ncc(-c2ncc(-c3ccc4ccccc4c3)n2CCCC(C)(C)C)n1CCCCCNC [Dim3, 5-(1-(4,4-Dimethylpentyl)-2′-ethynyl-5-(naphthalen-2-yl)-1H,3′H-[2,4′-biimidazol]-3′-yl)-N-methylpentan-1-amine]",no in vitro inhibitory activity; also recorded: not active,77.87 ± 3.04,101.1 ± 15.06,100,9 ± 10,,,
"CNCCCCCn1c(-c2ncc(-c3ccc4ccccc4c3)n2CCCC(C)(C)C)cnc1I [Dim16, 5-(1-(4,4-Dimethylpentyl)-2′-iodo-5-(naphthalen-2-yl)-1H,3′H-[2,4′-biimidazol]-3′-yl)-N-methylpentan-1-amine]",,91.1 ± 2.22,87.17 ± 7.42,100,0.8 ± 1,147000 ± 75100,10,2000
